Data as given in patent publication US20110039873A1, “SUBSTITUTED PYRAZOLO[1,5-a] PYRIDINE COMPOUNDS HAVING MULTI-TARGET ACTIVITY” (priority 2009, published 2011).
Like-named read-outs stand apart in the source and are kept apart here.

Tests used:
[1] = system: phosphorylated c-Jun (serine-73); experiment: Phosphorylated c-JUN (A-beta), SH-SY5Y; assay type: cell-based; details: Homo sapiens, Amyloid Beta peptide 30 uM, 3 hours, read-out: p-cJun Abeta SH-SY5Y (EC50 in μM)
Procedure: In 96-well plates either human SH-SY5Y neuroblastoma cells at 2.5×10^4 cells/well or E18 rat neuronal cells at 1.5×10^4 cells/well were seeded. […] Supernatant was discarded and cells were fixed with 4% paraformaldehyde (100 ul/well) for 20 minutes. FACE cell based ELISA assay (Active Motif) was performed specific for quantifying phosphorlyated c-Jun (serine-73).

[2] = system: rat chronic constriction injury (CCI) model of neuropathic pain; experiment: Rat chronic constriction injury (CCI) model of neuropathic pain; assay type: in vivo; details: IP, dose not given; 50% paw withdrawal threshold, von Frey
Procedure: To induce allodynia, male Sprague-Dawley rats underwent chronic constriction injury (CCI) to the sciatic nerve as described by Bennett and Xie, Pain 1988; 33(1):87-107. The plantar surface of the hind paws was stimulated with von Frey filaments (Stoelting) to induce a withdrawal response by blinded personnel. The bending force of fiber required to induce a 50% withdrawal response was calculated following CCI surgery (pre-dosing baseline). N=5-6 allodynic rats received a single IP or oral administration of test compounds or vehicle. Two hours post-dosing, 50% paw withdrawal threshold was determined again by blinded testers using von Frey filaments. The 50% withdrawal threshold prior to CCI surgery, pre-dosing (10 days post-surgery), and 2 hours post-dosing are plotted.
For selected compounds multi-day studies were perfumed with pre-determined schedules for dosing and withdrawal threshold assessments.

[3] = molecular target: T1, recombinant human phosphodiesterase 10A1 enzyme (Homo sapiens, UniProt Q9Y233); experiment: PDE10 inhibition assay (PDELight); assay type: biochemical; details: for IC50: 1 uM cAMP, read-out: PDE 10 Inhibition (IC50 in μM); for PDE-10 inhibition (in words): Table 2
T1 construct: purchased BPS Biosciences; host or cells: Baculovirus infected Sf9 cells
Procedure: In a 96-well plate, recombinant human phosphodiesterase 10A1 enzyme (10 U/well) expressed in Baculovirus infected Sf9 cells (BPS Biosciences) was combined with 1 uM cAMP substrate (Sigma). […] Using a PDELight® kit (Cambrex), the amount of AMP produced in the reaction from the hydrolysis of cAMP was quantified using PDELight AMP Detection Reagent which converts the AMP directly to ATP. The assay uses luciferase, which catalyses the formation of light from the newly formed ATP and luciferin. The luminescence was read on a Victor Light 1420 luminometer. IC50 calculations were plotted using a nonlinear regression curve fit.

[4] = system: phosphorylated c-Jun (serine-73); experiment: Phosphorylated c-JUN (6-OHDA), SH-SY5Y; assay type: cell-based; details: Homo sapiens, 50 uM 6-hydroxydopamine, 1.5 hours, read-out: p-cJun 6-OHDA SH-SY5Y (EC50 in μM)
Procedure: Human SH-SY5Y neuroblastoma cells were cultured in 96-well plates with 2.5×10^4 cells/well and incubated for 48 hours. 6-hydroxydopamine was added at a concentration of 50 uM in the presence or absence of test compounds (0-30 uM) and incubated for 1.5 hours. Supernatant was discarded and cells were fixed with 4% paraformaldehyde (100 ul/well) for 20 minutes. FACE cell based ELISA assay (Active Motif) was performed specific for quantifying phosphorlyated c-Jun (serine-73).

[5] = system: Mouse BV-2 microglial cells; experiment: BV-2 glial cell assay (TNF-α and MCP-1 by Luminex); assay type: cell-based; details: for EC50: Mus musculus, BV-2, LPS and IFN-γ activated, 20 hours; for inhibiting glial cell activation (TNF-α and/or MCP-1): Table 3
Procedure: Mouse BV-2 microglial cells were seeded on 96-well plates at a concentration of 3×10^4 cells/well. Cells were activated with 100 ng/mL LPS and IFN-γ (100 ng/mL) in the presence or absence of test compounds (0-30 uM). Following incubation for 20 hours, cells were spun down and supernatant collected. The supernatant was analyzed via Luminex for the presence of TNF-α and MCP-1.

[6] = molecular target: T2, recombinant full length human JNK3 enzyme (Homo sapiens, UniProt P53779); experiment: JNK 3 inhibition assay (ATP depletion, luciferase); assay type: biochemical; details: for IC50: 10 uM ATP, ATF2 substrate; for JNK-3 inhibition (in words): see Table 2
T2 construct: recombinant full length human JNK2 or JNK3 enzyme; purchased Upstate; host or cells: Sf21 cells
Procedure: In a 96-well plate, recombinant full length human JNK2 or JNK3 enzyme (40 ng) expressed in Sf21 cells (Upstate) was incubated with the substrate ATF2 (3 uM) for 1 hour in the presence of 10 uM ATP. […] The ATP levels were quantified using luciferase with luminescence read on a Victor Light 1420 luminometer. IC50 calculations were plotted using a nonlinear regression curve fit.

[7] = molecular target: T3, catalytic domain of phosphodiesterase 4B enzyme cloned from human brain (Homo sapiens, UniProt Q07343); experiment: PDE4 inhibition assay (PDELight); assay type: biochemical; details: for IC50: 5 uM cAMP, read-out: PDE 4 Inhibition (IC50 in μM)
T3 construct: the catalytic domain of phosphodiesterase 4B enzyme; purchased Scottish Biomedical
Procedure: In a 96-well plate, the catalytic domain of phosphodiesterase 4B enzyme (40 mU/well) cloned from human brain (Scottish Biomedical) was combined with 5 uM cAMP substrate (Sigma). […] Using a PDELight® kit (Cambrex), the amount of AMP produced in the reaction from the hydrolysis of cAMP was quantified using PDELight AMP Detection Reagent which converts the AMP directly to ATP. The assay uses luciferase, which catalyses the formation of light from the newly formed ATP and luciferin. […] IC50 calculations were plotted using a nonlinear regression curve fit.

[8] = system: at least one of JNK 3 or JNK 2 and at least one of PDE 10 or PDE 4; experiment: Dual inhibition (phosphodiesterase and JNK); assay type: biochemical, human; details: IC50 JNK 3 or JNK 2 less than about 5.00 μM and PDE 10 or PDE 4 less than about 20.0 or 30.0 μM
Procedure: In a 96-well plate, recombinant full length human JNK2 or JNK3 enzyme (40 ng) expressed in Sf21 cells (Upstate) was incubated with the substrate ATF2 (3 uM) for 1 hour in the presence of 10 uM ATP. The amount of ATP depletion by the JNK enzyme is measured in the presence or absence of test compounds (0-30 uM). The ATP levels were quantified using luciferase with luminescence read on a Victor Light 1420 luminometer. IC50 calculations were plotted using a nonlinear regression curve fit.
In a 96-well plate, the catalytic domain of phosphodiesterase 4B enzyme (40 mU/well) cloned from human brain (Scottish Biomedical) was combined with 5 uM cAMP substrate (Sigma). Test compounds (0-30 uM) or vehicle (0.5% DMSO) were added to the enzyme/substrate and incubated 1 hour. Using a PDELight® kit (Cambrex), the amount of AMP produced in the reaction from the hydrolysis of cAMP was quantified using PDELight AMP Detection Reagent which converts the AMP directly to ATP. The assay uses luciferase, which catalyses the formation of light from the newly formed ATP and luciferin. The luminescence was read on a Victor Light 1420 luminometer. IC50 calculations were plotted using a nonlinear regression curve fit.
In a 96-well plate, recombinant human phosphodiesterase 10A1 enzyme (10 U/well) expressed in Baculovirus infected Sf9 cells (BPS Biosciences) was combined with 1 uM cAMP substrate (Sigma). Test compounds (0-30 uM) or vehicle (0.5% DMSO) were added to the enzyme/substrate and incubated 1 hour. Using a PDELight® kit (Cambrex), the amount of AMP produced in the reaction from the hydrolysis of cAMP was quantified using PDELight AMP Detection Reagent which converts the AMP directly to ATP. The assay uses luciferase, which catalyses the formation of light from the newly formed ATP and luciferin. The luminescence was read on a Victor Light 1420 luminometer. IC50 calculations were plotted using a nonlinear regression curve fit.

[9] = molecular target: T4, recombinant full length human JNK2 enzyme (Homo sapiens, UniProt P45984); experiment: JNK 2 inhibition assay (ATP depletion, luciferase); assay type: biochemical
T4 construct: recombinant full length human JNK2 or JNK3 enzyme; purchased Upstate; host or cells: Sf21 cells
Procedure: In a 96-well plate, recombinant full length human JNK2 or JNK3 enzyme (40 ng) expressed in Sf21 cells (Upstate) was incubated with the substrate ATF2 (3 uM) for 1 hour in the presence of 10 uM ATP. […] IC50 calculations were plotted using a nonlinear regression curve fit.

[10] = Oral pharmacokinetic evaluation; assay type: in vivo, rat; details: Sprague-Dawley rats; for half-life / AUC(0-t) / Cmax: male, rat, plasma; for half-life: Sprague-Dawley, po, 15 mg/kg; for AUC(0-t): read-out: Oral PK AUClast; for Cmax: read-out: Oral PK Cmax
Procedure: Three male Sprague-Dawley rats were dosed orally via gavage with 15 mg/kg of test compound. Serial blood samples were collected from the jugular vein at 5, 15, and 30 min, 1, 3, and 6 hours post dosing. Samples were processed for plasma via centrifugation and plasma samples were stored frozen prior to analysis via a sensitive and specific HPLC/MS/MS method. PK parameters were calculated using WinNonLin (Pharsight).

[11] = read-out: MCP-1 BV-2 (EC50 in μM)
[12] = read-out: TNF-a BV-2 (EC50 in μM)
[13] = 10 uM ATP, ATF2 substrate, read-out: JNK 2 Inhibition (IC50 in μM)
[14] = 15 mg/kg oral gavage, read-out: Oral PK T½ (converted)
[15] = read-out: IC50 value based upon a JNK 2 inhibition assay (range given)

T3 sequence (Q07343 330-659 limits assumed): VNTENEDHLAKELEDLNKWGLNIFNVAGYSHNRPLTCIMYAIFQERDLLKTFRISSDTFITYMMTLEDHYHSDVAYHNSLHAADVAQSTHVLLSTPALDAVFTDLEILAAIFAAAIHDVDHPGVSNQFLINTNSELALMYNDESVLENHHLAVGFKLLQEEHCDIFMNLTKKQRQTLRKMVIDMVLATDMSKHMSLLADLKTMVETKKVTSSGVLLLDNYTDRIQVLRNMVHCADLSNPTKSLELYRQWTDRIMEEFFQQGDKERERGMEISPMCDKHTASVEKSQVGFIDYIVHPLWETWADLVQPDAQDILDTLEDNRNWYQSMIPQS
T4 sequence (P45984 whole entry): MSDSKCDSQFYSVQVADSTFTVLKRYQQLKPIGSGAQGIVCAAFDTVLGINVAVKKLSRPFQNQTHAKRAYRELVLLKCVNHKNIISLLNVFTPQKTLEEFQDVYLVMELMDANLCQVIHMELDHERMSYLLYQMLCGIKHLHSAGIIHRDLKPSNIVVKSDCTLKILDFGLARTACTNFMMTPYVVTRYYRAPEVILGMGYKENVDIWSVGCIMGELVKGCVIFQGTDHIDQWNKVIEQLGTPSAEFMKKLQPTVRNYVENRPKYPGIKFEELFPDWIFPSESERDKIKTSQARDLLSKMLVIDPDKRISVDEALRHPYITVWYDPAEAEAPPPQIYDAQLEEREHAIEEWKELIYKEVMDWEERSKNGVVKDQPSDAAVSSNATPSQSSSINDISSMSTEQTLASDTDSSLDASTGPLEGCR
T1 sequence (Q9Y233 1-779 isoform Q9Y233-1): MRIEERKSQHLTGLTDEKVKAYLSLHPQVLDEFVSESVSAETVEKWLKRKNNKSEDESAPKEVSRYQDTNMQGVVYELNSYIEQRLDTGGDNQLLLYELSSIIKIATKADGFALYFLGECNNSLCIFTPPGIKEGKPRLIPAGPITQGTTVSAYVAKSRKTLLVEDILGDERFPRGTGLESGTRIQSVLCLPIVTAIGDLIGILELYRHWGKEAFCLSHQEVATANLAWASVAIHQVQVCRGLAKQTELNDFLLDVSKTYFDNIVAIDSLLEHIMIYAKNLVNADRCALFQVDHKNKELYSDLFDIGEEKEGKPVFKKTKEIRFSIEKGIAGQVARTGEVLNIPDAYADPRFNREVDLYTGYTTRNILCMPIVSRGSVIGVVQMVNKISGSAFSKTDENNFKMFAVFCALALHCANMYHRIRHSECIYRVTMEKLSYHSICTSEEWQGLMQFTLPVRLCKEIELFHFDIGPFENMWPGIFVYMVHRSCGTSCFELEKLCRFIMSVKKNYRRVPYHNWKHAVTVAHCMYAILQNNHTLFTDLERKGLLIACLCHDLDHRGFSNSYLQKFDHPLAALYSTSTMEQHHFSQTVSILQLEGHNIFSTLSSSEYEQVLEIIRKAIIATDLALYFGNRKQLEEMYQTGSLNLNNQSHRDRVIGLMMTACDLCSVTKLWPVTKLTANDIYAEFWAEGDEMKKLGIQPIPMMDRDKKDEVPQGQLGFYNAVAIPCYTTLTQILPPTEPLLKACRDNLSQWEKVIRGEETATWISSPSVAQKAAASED
T2 sequence (P53779 whole entry): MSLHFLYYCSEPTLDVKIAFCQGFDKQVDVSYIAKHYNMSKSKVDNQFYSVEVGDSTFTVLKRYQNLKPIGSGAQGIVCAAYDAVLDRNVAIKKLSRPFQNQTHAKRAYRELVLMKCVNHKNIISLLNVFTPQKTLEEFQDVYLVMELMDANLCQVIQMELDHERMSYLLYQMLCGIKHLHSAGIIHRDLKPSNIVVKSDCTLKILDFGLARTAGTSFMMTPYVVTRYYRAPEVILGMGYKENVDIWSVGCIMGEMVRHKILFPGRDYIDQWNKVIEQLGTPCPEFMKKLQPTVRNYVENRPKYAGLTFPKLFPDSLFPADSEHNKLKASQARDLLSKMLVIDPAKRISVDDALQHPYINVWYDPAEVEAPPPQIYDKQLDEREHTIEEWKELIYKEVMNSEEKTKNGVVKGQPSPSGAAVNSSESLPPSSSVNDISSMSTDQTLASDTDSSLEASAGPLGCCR

Row | Structure (SMILES) | EC50 [1] | IP CCI efficacy (Change in grams) [2] | IC50 [3] | PDE-10 inhibition (in words) [3] | EC50 [4] | EC50 [5, 11] | EC50 [5, 12] | inhibiting glial cell activation (TNF-α and/or MCP-1) [5] | IC50 [6] | JNK-3 inhibition (in words) [6] | PDE-4 inhibition (in words) [7] | IC50 [7] | dual inhibition (phosphodiesterase and JNK) [8] | IC50 [9, 13] | half life following oral dosing (in words) ([10]; oral) | half-life [10, 14] | AUC(0-t) ([10]; 15 mg/kg oral gavage) | Cmax ([10]; 15 mg/kg oral gavage) | IC50 [9, 15] | half-life ([10]; oral, read-out: half life following oral dosing)
1 | CC(C)CNc1nccc(-c2c(C(C)C)nn3ccccc23)n1 [AV1158, N-isobutyl-4-(2-isopropylpyrazolo[1,5-a]pyridin-3-yl)pyrimidin-2-amine] | > 30 µM | 0.93 grams | 8.4 µM | particularly effective | > 30 µM | 1.2 µM | 1 µM | Particularly effective | 1.2 µM | particularly effective | particularly effective | 3.4 µM | effective dual inhibitors | – | – | – | – | – | – | –
2 | CC(C)Cc1nn2ccccc2c1-c1ccnc(NC2CCCC2)n1 [AV1178, N-cyclopentyl-4-(2-isobutylpyrazolo[1,5-a]pyridin-3-yl)pyrimidin-2-amine] | > 30 µM | – | > 100 µM | – | – | – | – | – | 3.6 µM | – | particularly effective | 5.4 µM | effective dual inhibitors | 2.8 µM | – | – | – | – | – | –
3 | Fc1cccc(-c2nn3ccccc3c2-c2ccnc(NC3CCCC3)n2)c1 [AV1180, N-cyclopentyl-4-(2-(3-fluorophenyl)pyrazolo[1,5-a]pyridin-3-yl)pyrimidin-2-amine] | 4.1 µM | 0 grams | 53.5 µM | – | > 30 µM | 1.6 µM | 0.04 µM | Particularly effective | 0.3 µM | particularly effective | – | 16.4 µM | effective dual inhibitors | – | particularly prolonged half lives | 1.8 h | 160 ng·h/mL | 58 ng/mL | – | –
4 | Brc1cccc(-c2nn3ccccc3c2-c2ccnc(NC3CCCC3)n2)c1 [AV1195, 4-(2-(3-bromophenyl)pyrazolo[1,5-a]pyridin-3-yl)-N-cyclopentylpyrimidin-2-amine] | – | [0] grams | > 100 µM | – | – | 0.7 µM | 0.03 µM | Particularly effective | 0.05 µM | particularly effective | particularly effective | 4.9 µM | effective dual inhibitors | 0.09 µM | particularly prolonged half lives | 1.2 h | 581 ng·h/mL | 211 ng/mL | 0.01 to 2 µM | –
5 | c1ccn2nc(C3CC3)c(-c3ccnc(NC4CCCC4)n3)c2c1 [AV1198, N-cyclopentyl-4-(2-cyclopropylpyrazolo[1,5-a]pyridin-3-yl)pyrimidin-2-amine] | – | [0] grams | 6.8 µM | particularly effective | – | 0.3 µM | 3.3 µM | Particularly effective | 2.8 µM | particularly effective | particularly effective | 3.4 µM | effective dual inhibitors | 1.4 µM | particularly prolonged half lives | 3.6 h | 79 ng·h/mL | 30 ng/mL | 0.01 to 2 µM | > 3 h
